This passage reports IC50 and inhibition results from patent US10323038B2, “Pyrazole compounds and methods of making and using same” (ABIDE THERAPEUTICS, INC., priority 2015, dated 2019).

What is called pIC50 is the negative decadic logarithm of the IC50, by convention in mol/L.

For one test, the target named is MAGL (Mus musculus (Mouse), UniProt O35678). The test can be described thus: In vitro competitive activity-based protein profiling, MAGL (mouse). Type of test: biochemical. Conditions: for inhibition at 1 µM: read-out: MAGL % inh. 1 μM (mouse). In short, it runs like this:
(§1)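 Gel-based read-out: fluorescence intensity of MAGL and FAAH bands after SDS-PAGE gave serine hydrolase activity. Proteomes at 1.0 mg/mL were pretreated 30 min at 37° C with inhibitor over a concentration range, then labelled 30 min with FP-Rh or HT-01 (stock 50 μM in DMSO).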

The next test addresses FAAH (Mus musculus (Mouse), UniProt O08914). The test can be described thus: In vitro competitive activity-based protein profiling, FAAH (mouse). The note with it: for inhibition at 1 µM: read-out: FAAH % inh. 1 μM (mouse). Type of test: biochemical. In outline: as §1

pIC50: −log10 of the molar value.

Sequence of MAGL (O35678 whole entry): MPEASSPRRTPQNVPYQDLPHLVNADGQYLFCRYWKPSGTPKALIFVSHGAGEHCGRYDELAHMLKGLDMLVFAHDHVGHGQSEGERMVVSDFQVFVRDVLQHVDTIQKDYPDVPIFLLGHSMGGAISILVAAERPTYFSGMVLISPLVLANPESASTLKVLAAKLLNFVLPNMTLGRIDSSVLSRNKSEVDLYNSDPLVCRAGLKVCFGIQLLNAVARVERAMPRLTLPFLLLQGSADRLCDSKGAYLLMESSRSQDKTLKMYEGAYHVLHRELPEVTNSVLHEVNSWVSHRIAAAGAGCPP
Sequence of FAAH (O08914 whole entry): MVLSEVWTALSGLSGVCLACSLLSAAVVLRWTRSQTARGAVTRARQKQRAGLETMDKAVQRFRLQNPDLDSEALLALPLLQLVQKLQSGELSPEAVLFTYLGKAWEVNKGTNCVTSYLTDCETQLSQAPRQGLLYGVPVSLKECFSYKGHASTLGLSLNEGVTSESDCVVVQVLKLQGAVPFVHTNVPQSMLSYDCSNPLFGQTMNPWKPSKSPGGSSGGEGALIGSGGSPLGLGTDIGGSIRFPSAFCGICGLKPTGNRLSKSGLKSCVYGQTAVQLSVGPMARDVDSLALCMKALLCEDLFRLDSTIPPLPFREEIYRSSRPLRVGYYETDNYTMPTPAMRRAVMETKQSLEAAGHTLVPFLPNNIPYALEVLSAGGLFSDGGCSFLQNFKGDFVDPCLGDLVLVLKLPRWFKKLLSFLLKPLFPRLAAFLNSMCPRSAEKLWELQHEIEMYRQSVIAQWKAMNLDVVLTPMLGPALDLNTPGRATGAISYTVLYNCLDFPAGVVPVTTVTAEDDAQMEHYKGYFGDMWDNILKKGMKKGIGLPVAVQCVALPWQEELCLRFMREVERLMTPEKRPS

On to `CC(=O)N(C)c1cnn(C(=O)N2CC3CN(Cc4ccccc4F)CC3C2)c1` (stereo not shown) [Example 182, N-(1-(5-(2-fluorobenzyl)octahydropyrrolo[3,4-c]pyrrole-2-carbonyl)-1H-pyrazol-4-yl)-N-methylacetamide], for which, at MAGL, the negative-log IC50 (pIC50) was 6.00 to 7.00 and the inhibition at 1 µM was no less than 75%. Moreover, on FAAH, the negative logarithm of the IC50 (pIC50) was no less than 7.00 and the inhibition at 1 µM is no less than 75%.
Take `CC(=O)N(C)c1cnn(C(=O)N2CC3CN(Cc4ccccc4N4CCCC4)CC3C2)c1` (stereo not shown) [Example 184, N-methyl-N-(1-(5-(2-(pyrrolidin-1-yl)benzyl)octahydropyrrolo[3,4-c]pyrrole-2-carbonyl)-1H-pyrazol-4-yl)acetamide]: the inhibition at 1 µM at MAGL is no less than 75%; on FAAH, 50 to 75%.
`CC(=O)N(C)c1cnn(C(=O)N2CC3CN(Cc4ccccc4N4CCOCC4)CC3C2)c1` (stereo not shown) [Example 185, N-methyl-N-(1-(5-(2-morpholinobenzyl)octahydropyrrolo[3,4-c]pyrrole-2-carbonyl)-1H-pyrazol-4-yl)acetamide]: the values for the inhibition at 1 µM on MAGL and on FAAH were 50 to 75% and 0 to 25%, respectively.
For `CC(=O)N(C)c1cnn(C(=O)N2CCC3(CCN(Cc4ccccc4Cl)C3)CC2)c1` [Example 186, N-(1-(2-(2-chlorobenzyl)-2,8-diazaspiro[4.5]decane-8-carbonyl)-1H-pyrazol-4-yl)-N-methylacetamide], the pIC50 at MAGL was no less than 7.00; on FAAH it was 6.00 to 7.00. Further, the inhibition at 1 µM at MAGL and at FAAH was no less than 75% in each case.
As for `CC(=O)N(C)c1cnn(C(=O)N2CCC3(CCN(Cc4cccc(Cl)c4)C3)CC2)c1` [Example 187, N-(1-(2-(3-chlorobenzyl)-2,8-diazaspiro[4.5]decane-8-carbonyl)-1H-pyrazol-4-yl)-N-methylacetamide], the negative-log IC50 (pIC50) on MAGL and on FAAH was 6.00 to 7.00 each time. The inhibition at 1 µM on MAGL and on FAAH was no less than 75% each time.
For `CC(=O)N(C)c1cnn(C(=O)N2CCC3(CCN(Cc4ccc(Cl)cc4)C3)CC2)c1` [Example 188, N-(1-(2-(4-chlorobenzyl)-2,8-diazaspiro[4.5]decane-8-carbonyl)-1H-pyrazol-4-yl)-N-methylacetamide], the negative logarithm of the IC50 (pIC50) on MAGL and on FAAH was 6.00 to 7.00 each time. In addition, the inhibition at 1 µM on MAGL and on FAAH was no less than 75% in each case.
With `CC(=O)N(C)c1cnn(C(=O)N2CC3CN(Cc4ccc(OCC(=O)N5CCCC5)cc4Cl)CC3C2)c1` (stereo not shown) [Example 189, N-(1-(5-(2-chloro-4-(2-oxo-2-(pyrrolidin-1-yl)ethoxy)benzyl)octahydropyrrolo[3,4-c]pyrrole-2-carbonyl)-1H-pyrazol-4-yl)-N-methylacetamide], at MAGL, the pIC50 is 5.00 to 6.00 and the inhibition at 1 µM was no less than 75%. For the same compound, on FAAH, the negative logarithm of the IC50 (pIC50) was 6.00 to 7.00 and the inhibition at 1 µM lay within 0 to 25%.
For `CC(=O)N(C)c1cnn(C(=O)N2CCN(Cc3cc(N4CCCC4)cc(C(F)(F)F)c3)CC2)c1` [Example 190, N-methyl-N-(1-(4-(3-(pyrrolidin-1-yl)-5-(trifluoromethyl)benzyl)piperazine-1-carbonyl)-1H-pyrazol-4-yl)acetamide] the same measures were no less than 7.00, no less than 75%, 5.00 to 6.00 and 50 to 75%.
Take `CC(=O)N(C)c1cnn(C(=O)N2CCN(Cc3ccc(C(F)(F)F)cc3N3CCCC3)CC2)c1` [Example 191, N-methyl-N-(1-(4-(2-(pyrrolidin-1-yl)-4-(trifluoromethyl)benzyl)piperazine-1-carbonyl)-1H-pyrazol-4-yl)acetamide]: on MAGL, the negative-log IC50 (pIC50) is no less than 7.00 and the inhibition at 1 µM was no less than 75%. Moreover, on FAAH, the pIC50 is 6.00 to 7.00 and the inhibition at 1 µM is 25 to 50%.
Consider `CC(=O)N(C)c1cnn(C(=O)N2CCN(Cc3ccccc3Cl)CC2)c1` [Example 192, N-(1-(4-(2-chlorobenzyl)piperazine-1-carbonyl)-1H-pyrazol-4-yl)-N-methylacetamide], for which the negative logarithm of the IC50 (pIC50) at MAGL and at FAAH was 6.00 to 7.00 in each case. Moreover, the inhibition at 1 µM on MAGL and at FAAH was no less than 75% throughout.
On to `CC(=O)N(C)c1cnn(C(=O)N2CCN(Cc3cccc(Cl)c3)CC2)c1` [Example 193, N-(1-(4-(3-chlorobenzyl)piperazine-1-carbonyl)-1H-pyrazol-4-yl)-N-methylacetamide], for which the negative logarithm of the IC50 (pIC50) on MAGL and at FAAH was 6.00 to 7.00 each time. The inhibition at 1 µM at MAGL and at FAAH was no less than 75% throughout.
With `CC(=O)N(C)c1cnn(C(=O)N2CCN(Cc3ccc(Cl)cc3)CC2)c1` [Example 194, N-(1-(4-(4-chlorobenzyl)piperazine-1-carbonyl)-1H-pyrazol-4-yl)-N-methylacetamide], on MAGL, the negative logarithm of the IC50 (pIC50) was 6.00 to 7.00 and the inhibition at 1 µM is no less than 75%. Besides, on FAAH, the pIC50 was 5.00 to 6.00 and the inhibition at 1 µM was no less than 75%.
With `CC(=O)N(C)c1cnn(C(=O)N2CCN(Cc3ccc(C(F)(F)F)cc3N3C4CCC3COC4)CC2)c1` [Example 195, N-(1-(4-(2-(3-oxa-8-azabicyclo[3.2.1]octan-8-yl)-4-(trifluoromethyl)benzyl)piperazine-1-carbonyl)-1H-pyrazol-4-yl)-N-methylacetamide], on MAGL, the negative logarithm of the IC50 (pIC50) was no less than 7.00 and the inhibition at 1 µM was no less than 75%. On FAAH, the pIC50 was 5.00 to 6.00 and the inhibition at 1 µM lay in the range of 0 to 25%.
On to `CC(=O)N(C)c1cnn(C(=O)N2CCN(Cc3ccc(Cl)c(Cl)c3)CC2)c1` [Example 196, N-(1-(4-(3,4-dichlorobenzyl)piperazine-1-carbonyl)-1H-pyrazol-4-yl)-N-methylacetamide], for which the inhibition at 1 µM at MAGL and at FAAH was no less than 75% each time. For the same compound, the pIC50 at FAAH is 6.00 to 7.00.
Regarding `CC(=O)N(C)c1cnn(C(=O)N2CCN(Cc3ccc(N4CCCC4)cc3)CC2)c1` [Example 197, N-methyl-N-(1-(4-(4-(pyrrolidin-1-yl)benzyl)piperazine-1-carbonyl)-1H-pyrazol-4-yl)acetamide], on MAGL, the negative logarithm of the IC50 (pIC50) is 6.00 to 7.00 and the inhibition at 1 µM is no less than 75%. At FAAH, the pIC50 was 6.00 to 7.00 and the inhibition at 1 µM was no less than 75%.
For `CC(=O)N(C)c1cnn(C(=O)N2CCN(Cc3ccc(C(F)(F)F)cc3)CC2)c1` [Example 198, N-methyl-N-(1-(4-(4-(trifluoromethyl)benzyl)piperazine-1-carbonyl)-1H-pyrazol-4-yl)acetamide], the inhibition at 1 µM on MAGL and on FAAH was no less than 75% throughout. The same compound showed a negative logarithm of the IC50 (pIC50) at FAAH of 6.00 to 7.00.
As to `CC(=O)N(C)c1cnn(C(=O)N2CCN(Cc3ccc(CN4CCOCC4)cc3)CC2)c1` [Example 199, N-methyl-N-(1-(4-(4-(morpholinomethyl)benzyl)piperazine-1-carbonyl)-1H-pyrazol-4-yl)acetamide], the inhibition at 1 µM on MAGL lay within 50 to 75%; at FAAH, 0 to 25%.
Taken in the same sequence, the figures for `CC(=O)N(C)c1cnn(C(=O)N2CCN(Cc3ccc(N4CCOCC4)cc3)CC2)c1` [Example 200, N-methyl-N-(1-(4-(4-morpholinobenzyl)piperazine-1-carbonyl)-1H-pyrazol-4-yl)acetamide] were 50 to 75% and 0 to 25%.
Regarding `CC(=O)N(C)c1cnn(C(=O)N2CCN(Cc3ccc(-c4ccccc4)cc3C)CC2)c1` [Example 201, N-methyl-N-(1-(4-((3-methylbiphenyl-4 yl)methyl)piperazine-1-carbonyl)-1H-pyrazol-4-yl)acetamide], on MAGL, the negative-log IC50 (pIC50) was no less than 7.00 and the inhibition at 1 µM is no less than 75%. Also, at FAAH, the pIC50 was no less than 7.00 and the inhibition at 1 µM is no less than 75%.
`CC(=O)N(C)c1cnn(C(=O)N2CCN(Cc3cccc(Oc4ccccc4)c3)CC2)c1` [Example 202, N-methyl-N-(1-(4-(3-phenoxybenzyl)piperazine-1-carbonyl)-1H-pyrazol-4-yl)acetamide]: the pIC50 at MAGL and on FAAH was no less than 7.00 in each case. The inhibition at 1 µM on MAGL and at FAAH was no less than 75% throughout.
Regarding `CC(=O)N(C)c1cnn(C(=O)N2CCN(Cc3ccc(N4CCOCC4)cc3Cl)CC2)c1` [Example 203, N-(1-(4-(2-chloro-4-morpholinobenzyl)piperazine-1-carbonyl)-1H-pyrazol-4-yl)-N-methylacetamide], at MAGL, the negative-log IC50 (pIC50) is no less than 7.00 and the inhibition at 1 µM was no less than 75%. On FAAH, the negative logarithm of the IC50 (pIC50) is 6.00 to 7.00 and the inhibition at 1 µM was no less than 75%.
With `CC(=O)N(C)c1cnn(C(=O)N2CCN(Cc3ccc(N4CCOCC4)cc3C)CC2)c1` [Example 204, N-methyl-N-(1-(4-(2-methyl-4-morpholinobenzyl)piperazine-1-carbonyl)-1H-pyrazol-4-yl)acetamide], on MAGL, the negative-log IC50 (pIC50) was 6.00 to 7.00 and the inhibition at 1 µM is no less than 75%. Moreover, on FAAH, the pIC50 was 6.00 to 7.00 and the inhibition at 1 µM is no less than 75%.
Regarding `CC(=O)N(C)c1cnn(C(=O)N2CCN(Cc3cccc(F)c3)CC2)c1` [Example 205, N-(1-(4-(3-fluorobenzyl)piperazine-1-carbonyl)-1H-pyrazol-4-yl)-N-methylacetamide], the pIC50 at MAGL and on FAAH was 6.00 to 7.00 each time. Also, the inhibition at 1 µM on MAGL and at FAAH was no less than 75% throughout.
On to `CC(=O)N(C)c1cnn(C(=O)N2CCN(Cc3cccc(C)c3)CC2)c1` [Example 206, N-methyl-N-(1-(4-(3-methylbenzyl)piperazine-1-carbonyl)-1H-pyrazol-4-yl)acetamide], for which, at MAGL, the pIC50 is no less than 7.00 and the inhibition at 1 µM is no less than 75%. On FAAH, the negative logarithm of the IC50 (pIC50) is 6.00 to 7.00 and the inhibition at 1 µM is no less than 75%.
Consider `COc1cccc(CN2CCN(C(=O)n3cc(N(C)C(C)=O)cn3)CC2)c1` [Example 207, N-(1-(4-(3-methoxybenzyl)piperazine-1-carbonyl)-1H-pyrazol-4-yl)-N-methylacetamide], for which the inhibition at 1 µM on MAGL and at FAAH was no less than 75% in each case.
